# Measured values published in patent US11858905B1, “Cathepsin L inhibitors” (priority 2023, dated 2024).
# pIC50: −log10 of the molar value. Like-named read-outs stand apart in the source and are kept apart here.
# What was measured:
# human CatL = human CatL (Homo sapiens (Human), UniProt P07711); assay: Human Cathepsin L (CatL) enzymatic assay; type: biochemical
# Description: Human Cathepsin L (CatL) Enzymatic Assay
# 60 μL of the compounds were added to 384-well dilution plate. The compound solution was diluted for 1:3 in succession in DMSO for each column for 10 pts. 0.05 μL diluted compound solution was added in each row to 384 assay plates (Corning 4514) using Echo (LABCYTE 655), each column containing 2 replicates. 5 μL working solution of human CatL enzyme (Abcam #ab81780) was added to 384-well assay plate, centrifuge 1000 rpm for 1 min. The mixture was incubated at […] for 15 min, then add 5 μL working solution of CatL substrate (Genscript #C7360HB140_5) to initiate the reaction (CatL: 0.05 nM, Substrate: 500 nM). Incubate at […] for 30 min. Reading Ex370 nm and Em460 nm fluorescence signals with BMG CLARIO Star Plusaucu. Percent inhibition for each compound was calculated and IC50 (half maximal inhibitory concentration) was fitted from non-linear regression by XLfit 5.5.0.
# SARS-CoV-2 PsVs = assay: microbe, parasite or virus in culture; type: cell-based; conditions: for activity at 0.5 µM / activity at 5 µM: Severe acute respiratory syndrome coronavirus 2, Vero C1008, 24 h; for activity at 0.5 µM: read-out: % Infection rate at 500 nM; for activity at 5 µM: read-out: % Infection rate at 5 uM
# [1] = CatL 0.05 nM, substrate 500 nM, pH 5.5, read-out: Enzymatic inhibition IC50
# [2] = summary of Table 2, read-out: IC50 for inhibiting CatL
# human CatL, sequence (P07711 whole entry, looked up): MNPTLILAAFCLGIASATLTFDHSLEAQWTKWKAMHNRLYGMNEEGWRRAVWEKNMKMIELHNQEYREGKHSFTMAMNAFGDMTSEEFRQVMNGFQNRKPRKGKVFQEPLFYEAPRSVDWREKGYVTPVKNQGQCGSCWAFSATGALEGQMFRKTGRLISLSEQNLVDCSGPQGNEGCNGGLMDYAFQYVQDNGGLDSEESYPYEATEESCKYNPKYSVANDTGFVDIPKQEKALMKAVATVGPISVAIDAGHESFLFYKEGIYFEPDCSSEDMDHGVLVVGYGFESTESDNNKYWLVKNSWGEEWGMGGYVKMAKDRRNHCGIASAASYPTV
SMILES,pIC50 (human CatL; [1]),protection of cells from pseudovirus infection at 500 nM (SARS-CoV-2 PsVs),activity at 0.5 µM (SARS-CoV-2 PsVs) [%],activity at 5 µM (SARS-CoV-2 PsVs) [%],pIC50 (human CatL; [2])
"Cc1nn(C2CC2)cc1C(=O)N[C@@H](Cc1nc2cc(F)c(F)cc2o1)C(=O)NC1(C#N)CC1 [Compound 17, (S)—N-(1-((1-cyanocyclopropyl)amino)-3-(5,6-difluorobenzo[d]oxazol-2-yl)-1-oxopropan-2-yl)-1-cyclopropyl-3-methyl-1H-pyrazole-4-carboxamide]",6.70,,,,
"COCCN1CC=C(c2ccc3nc(C[C@H](NC(=O)c4cc(C(C)(C)C)nn4C4CC4)C(=O)NCC#N)oc3c2)CC1 [Compound 45, (2S)-2-[(5-tert-butyl-2-cyclopropylpyrazol-3-yl)formamido]-N-(cyanomethyl)-3-{6-[1-(2-methoxyethyl)-3,6-dihydro-2H-pyridin-4-yl]-1,3-benzoxazol-2-yl}propanamide]",8.60,nearly full protection,7,0.02,
"Cc1cc(-c2ccc3nc(C[C@H](NS(=O)(=O)c4cccc(Br)c4)C(=O)NCC#N)oc3c2)ccn1 [Compound 36, (S)-2-((3-bromophenyl)sulfonamido)-N-(cyanomethyl)-3-(6-(2-methylpyridin-4-yl)benzo[d]oxazol-2-yl)propanamide]",7.10,,110,125,
"CC(C)(C)c1cc(C(=O)N[C@@H](Cc2nc3ccc(C4=CCN(CC(F)F)CC4)cc3o2)C(=O)NC2(C#N)CC2)n(C2CC2)n1 [Compound 29, (S)-3-(tert-butyl)-N-(1-((1-cyanocyclopropyl)amino)-3-(6-(1-(2,2-difluoroethyl)-1,2,3,6-tetrahydropyridin-4-yl)benzo[d]oxazol-2-yl)-1-oxopropan-2-yl)-1-cyclopropyl-1 H-pyrazole-5-carboxamide]",8.89,nearly full protection,7.3,8.8,> 8.00
"CN1CC=C(c2ccc3nc(C[C@H](NC(=O)c4cccc(Cl)c4)C(=O)NC4(C#N)CC4)oc3c2)CC1 [Compound 27, (S)-3-chloro-N-(1-((1-cyanocyclopropyl)amino)-3-(6-(1-methyl-1,2,3,6-tetrahydropyridin-4-yl)benzo[d]oxazol-2-yl)-1-oxopropan-2-yl)benzamide]",8.07,,40,13,> 8.00
"CC(C)(C)c1cc(C(=O)N[C@@H](Cc2nc3cc(F)cc(Cl)c3o2)C(=O)NC2(C#N)CC2)n(C2COC2)n1 [Compound 22, (S)-3-(tert-butyl)-N-(3-(7-chloro-5-fluorobenzo[d]oxazol-2-yl)-1-((1-cyanocyclopropyl)amino)-1-oxopropan-2-yl)-1-(oxetan-3-yl)-1H-pyrazole-5-carboxamide]",8.28,,33,13,
"CC(C)(C)c1cc(C(=O)N[C@@H](Cc2nc3cc(F)cc(Cl)c3o2)C(=O)NC2(C#N)CC2)n(C2CC2)n1 [Compound 21, (S)-3-(tert-butyl)-N-(3-(7-chloro-5-fluorobenzo[d]oxazol-2-yl)-1-((1-cyanocyclopropyl)amino)-1-oxopropan-2-yl)-1-cyclopropyl-1 H-pyrazole-5-carboxamide]",8.09,,60,12,
"N#CC1(NC(=O)[C@H](Cc2nc3ccccc3o2)NC(=O)c2cccc(Cl)c2)CC1 [Compound 1, (S)—N-(3-(benzo[d]oxazol-2-yl)-1-((1-cyanocyclopropyl)amino)-1-oxopropan-2-yl)-3-chlorobenzamide]",7.85,,69,39,
"CC1(c2cc(C(=O)N[C@@H](Cc3nc4ccc(-c5ccnc(C6CC6)c5)cc4o3)C(=O)NC3(C#N)CC3)n(C3CC3)n2)CC1 [Compound 48, (S)—N-(1-((1-cyanocyclopropyl)amino)-3-(6-(2-cyclopropylpyridin-4-yl)benzo[d]oxazol-2-yl)-1-oxopropan-2-yl)-1-cyclopropyl-3-(1-methylcyclopropyl)-1H-pyrazole-5-carboxamide]",8.46,,63,22.4,
"Cc1nn(C2CC2)cc1C(=O)N[C@@H](Cc1nc2ccccc2o1)C(=O)NC1(C#N)CC1 [Compound 16, (S)—N-(3-(benzo[d]oxazol-2-yl)-1-((1-cyanocyclopropyl)amino)-1-oxopropan-2-yl)-1-cyclopropyl-3-methyl-1H-pyrazole-4-carboxamide]",6.86,,,,
"Cc1cccc(-c2ccc3nc(C[C@H](NC(=O)c4cc(C5(C)CC5)nn4C4CC4)C(=O)NC4(C#N)CC4)oc3c2)n1 [Compound 44, (S)—N-(1-((1-cyanocyclopropyl)amino)-3-(6-(6-methylpyridin-2-yl)benzo[d]oxazol-2-yl)-1-oxopropan-2-yl)-1-cyclopropyl-3-(1-methylcyclopropyl)-1H-pyrazole-5-carboxamide]",7.78,,82,55.5,> 7.30
"CC(=O)Nc1ccc(-c2ccc3nc(C[C@H](NC(=O)c4cc(C5(C)CC5)nn4C4CC4)C(=O)NC4(C#N)CC4)oc3c2)cn1 [Compound 41, (2S)—N-(1-cyanocyclopropyl)-2-{[2-cyclopropyl-5-(1-methylcyclopropyl)pyrazol-3-yl]formamido}-3-[6-(6-acetamidopyridin-3-yl)-1,3-benzoxazol-2-yl]propanamide]",8.28,,90,57.7,
"Cn1c(C[C@H](NC(=O)c2cccc(Cl)c2)C(=O)NC2(C#N)CC2)nc2ccccc21 [Compound 32, (S)-3-chloro-N-(1-((1-cyanocyclopropyl)amino)-3-(1-methyl-1 H-benzo[d]imidazol-2-yl)-1-oxopropan-2-yl)benzamide]",< 6.00,,101,95,
"N#CC1(NC(=O)[C@H](Cc2nc3ccccc3s2)NC(=O)c2cccc(Cl)c2)CC1 [Compound 31, (S)—N-(3-(benzo[d]thiazol-2-yl)-1-((1-cyanocyclopropyl)amino)-1-oxopropan-2-yl)-3-chlorobenzamide]",7.93,,67,10,> 7.30
"CC(C)(C)c1cc(C(=O)N[C@@H](Cc2nc3ccc(Br)cc3o2)C(=O)NC2(C#N)CC2)n(C2CC2)n1 [Compound 33, (S)—N-(3-(6-bromobenzo[d]oxazol-2-yl)-1-((1-cyanocyclopropyl)amino)-1-oxopropan-2-yl)-3-(tert-butyl)-1-cyclopropyl-1H-pyrazole-5-carboxamide]",8.54,,39,5.9,
"N#CC1(NC(=O)[C@H](Cc2nc3cccc(Cl)c3o2)NC(=O)c2cccc(Cl)c2)CC1 [Compound 6, (S)-3-chloro-N-(3-(7-chlorobenzo[d]oxazol-2-yl)-1-((1-cyanocyclopropyl)amino)-1-oxopropan-2-yl)benzamide]",8.15,,75,20,> 8.00
"N#CC1(NC(=O)[C@H](Cc2nc3cccc(C(F)(F)F)c3o2)NC(=O)c2cccc(Cl)c2)CC1 [Compound 12, (S)-3-chloro-N-(1-((1-cyanocyclopropyl)amino)-1-oxo-3-(7-(trifluoromethyl)benzo[d]oxazol-2-yl)propan-2-yl)benzamide]",6.63,,,,
